Reference: ChEMBL document CHEMBL5108037, “Cyclic Peptide Screening Methods for Preclinical Drug Discovery” (J Med Chem, 2022)
Values belong to the molecule of their own block, whether it stands above or below them. Starred links: 1 amine or outer side, 2 acyl side, 3 side chain; linkers in the order of their positions; H or OH if unused. Positions of bridges follow the written chain, without caps; N, C: chain ends. Non-standard residues stand in square brackets, D forms with d. Residues, ends and D or L forms follow the SMILES beside them. Gly((CH2)5SH) = N[C@@H](CCCCCS)C(=O)O; Nle = CCCC[C@H](N)C(=O)O; CH2CH2 = C(C[*:2])[*:1]

Experiments:
[1] = Antiproliferative activity against human LNCaP-abl cells assessed as cell growth inhibition measured after 24 hrs by CellTiter-Glo assay; assay type: functional, cell-based
[2] = Antiproliferative activity against human LNCaP-95 cells assessed as cell growth inhibition measured after 24 hrs by CellTiter-Glo assay; assay type: functional, cell-based; details: LNCaP-95, 24 h
[3] = Inhibition of NDM-1 (unknown origin); parameters: species or system Bacteria
[4] = target: T1, Protein deacetylase HDAC6 (Homo sapiens, UniProt Q9UBN7); assay: Inhibition of HDAC6 (unknown origin)
T1 sequence (Q9UBN7 whole entry): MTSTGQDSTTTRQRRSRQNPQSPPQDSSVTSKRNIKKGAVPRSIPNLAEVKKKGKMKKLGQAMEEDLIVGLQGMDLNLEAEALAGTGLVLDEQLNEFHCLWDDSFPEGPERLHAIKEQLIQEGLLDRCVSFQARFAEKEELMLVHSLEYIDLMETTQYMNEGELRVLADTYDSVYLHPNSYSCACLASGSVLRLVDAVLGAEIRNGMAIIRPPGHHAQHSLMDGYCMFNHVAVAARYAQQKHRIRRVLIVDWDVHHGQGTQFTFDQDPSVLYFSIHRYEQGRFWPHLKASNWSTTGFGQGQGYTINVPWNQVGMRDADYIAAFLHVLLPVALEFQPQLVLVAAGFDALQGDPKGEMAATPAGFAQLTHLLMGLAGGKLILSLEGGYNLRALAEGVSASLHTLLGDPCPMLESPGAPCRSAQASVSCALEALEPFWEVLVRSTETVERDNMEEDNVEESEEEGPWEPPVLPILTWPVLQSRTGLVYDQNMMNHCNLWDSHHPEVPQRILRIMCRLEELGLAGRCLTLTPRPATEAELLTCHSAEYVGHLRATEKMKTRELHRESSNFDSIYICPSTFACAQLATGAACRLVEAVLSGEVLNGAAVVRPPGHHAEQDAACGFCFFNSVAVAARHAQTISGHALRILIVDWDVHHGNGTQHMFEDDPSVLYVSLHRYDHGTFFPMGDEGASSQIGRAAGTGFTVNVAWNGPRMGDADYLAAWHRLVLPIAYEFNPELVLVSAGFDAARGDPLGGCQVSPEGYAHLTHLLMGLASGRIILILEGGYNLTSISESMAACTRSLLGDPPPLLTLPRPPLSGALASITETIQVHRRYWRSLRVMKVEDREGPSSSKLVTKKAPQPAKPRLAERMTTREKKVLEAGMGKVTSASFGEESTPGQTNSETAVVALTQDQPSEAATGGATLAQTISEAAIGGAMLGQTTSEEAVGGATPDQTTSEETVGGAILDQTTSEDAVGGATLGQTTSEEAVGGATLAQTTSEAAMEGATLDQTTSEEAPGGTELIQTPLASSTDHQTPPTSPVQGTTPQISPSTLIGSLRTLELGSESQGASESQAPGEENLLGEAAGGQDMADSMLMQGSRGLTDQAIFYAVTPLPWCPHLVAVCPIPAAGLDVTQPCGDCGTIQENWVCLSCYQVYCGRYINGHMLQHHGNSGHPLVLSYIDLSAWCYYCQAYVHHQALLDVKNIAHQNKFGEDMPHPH

[5] = Inhibition of TEV protease using Cy5-ENLYFQGK(QSY21)-NH2 as substrate incubated for 1 hr by fluorescence based analysis; parameters: species or system Tobacco etch virus
[6] = Binding affinity to Carbonic anhydrase (unknown origin) assessed as dissociation constant by isothermal titration calorimetry; parameters: species or system Homo sapiens
[7] = target: T2, Kelch-like ECH-associated protein 1 (Homo sapiens, UniProt Q14145); assay: Binding affinity to Keap1 (unknown origin) assessed as dissociation constant by calorimetric analysis
T2 sequence (Q14145 whole entry): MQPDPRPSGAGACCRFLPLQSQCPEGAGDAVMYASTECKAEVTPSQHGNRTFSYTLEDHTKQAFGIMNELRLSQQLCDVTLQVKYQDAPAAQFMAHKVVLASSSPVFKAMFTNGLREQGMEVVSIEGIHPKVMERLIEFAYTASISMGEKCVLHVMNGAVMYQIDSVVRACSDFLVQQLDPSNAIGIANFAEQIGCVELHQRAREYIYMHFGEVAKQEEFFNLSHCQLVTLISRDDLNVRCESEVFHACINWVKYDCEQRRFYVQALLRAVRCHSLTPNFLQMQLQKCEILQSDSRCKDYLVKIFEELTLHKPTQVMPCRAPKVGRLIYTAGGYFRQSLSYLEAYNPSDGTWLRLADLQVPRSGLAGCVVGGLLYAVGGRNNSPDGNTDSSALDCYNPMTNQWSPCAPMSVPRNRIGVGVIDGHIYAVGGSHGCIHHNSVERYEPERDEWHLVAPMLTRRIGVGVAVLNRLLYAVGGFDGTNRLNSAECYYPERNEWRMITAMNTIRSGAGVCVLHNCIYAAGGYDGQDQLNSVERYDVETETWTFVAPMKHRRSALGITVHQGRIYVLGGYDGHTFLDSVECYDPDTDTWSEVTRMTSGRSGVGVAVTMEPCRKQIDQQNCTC

[8] = target: T2, Kelch-like ECH-associated protein 1; assay: Inhibition of Keap1 (unknown origin) by ELISA analysis

Structure (SMILES): COc1ccc([C@H](C)N(CC(=O)N(CCCOC(C)C)CC(=O)N(CC(=O)N(CCc2ccccc2Oc2ccccc2)CC(=O)O)c2cc(OC)cc(OC)c2)C(=O)CN(C(=O)[C@@H](C)N)[C@@H](C)c2ccc(OC)cc2)cc1
IC50 [1]: 7.1 µM
IC50 [2]: > 20 µM

Structure (SMILES): COc1ccc([C@H](C)N2CC(=O)N(CCCOC(C)C)CC(=O)N(c3cc(OC)cc(OC)c3)CC(=O)N(CCc3ccccc3Oc3ccccc3)CC(=O)N[C@H](C)C(=O)N([C@@H](C)c3ccc(OC)cc3)CC2=O)cc1
IC50 [1]: 0.195 µM
IC50 [2]: 0.782 µM

IC50 [3]: 59.7 µM
Structure (SMILES): C[C@@H](CS)C(=O)N1CCC[C@@H]1C(=O)O

IC50 [4]: 0.017 µM
Structure (SMILES): CCCC[C@@H]1NC(=O)[C@H](Cc2ccccc2)NC(=O)[C@H](CCCCCS)NC(=O)[C@H](CCCNC(=N)N)NC(=O)[C@H](CC(=O)O)NC(=O)[C@H](CO)NC(=O)[C@H](C)NC(=O)[C@H](CCCCN)NC1=O (cyclo(ASDR[Gly((CH2)5SH)]F[Nle]K))

Structure (SMILES): CSCC[C@@H]1NC(=O)[C@H](Cc2ccc(O)cc2)NC(=O)[C@@H](NC(=O)[C@H](C)N)CSC/C(=N\OCC(=O)NC/C=C/S(C)(=O)=O)CSC[C@@H](C(=O)NCC(=O)O)NC(=O)[C@H](CC(C)C)NC(=O)[C@H](Cc2ccc(O)cc2)NC(=O)[C@H](CC(C)C)NC(=O)[C@@H]2CCCN2C(=O)[C@H](CCC(=O)O)NC(=O)[C@H](CCC(N)=O)NC1=O
IC50 [5]: 0.73 µM

Kd [6]: 50 µM
Structure (SMILES): NNc1ccc(S(N)(=O)=O)cc1

Structure (SMILES): C[C@@H](O)[C@@H]1NC(=O)[C@H](CCC(=O)O)NC(=O)[C@H](CO)NC(=O)[C@H](CC(=O)O)NC(=O)[C@@H](N)Cc2ccc(cc2)OCCSC[C@@H](C(=O)O)NC(=O)[C@H](CCC(=O)O)NC(=O)CNC1=O (H-YDSETGEC-OH; linker 1-8 via CH2CH2)
Kd [7]: 0.11 µM
IC50 [8]: 0.0028 µM
